# In patent US20080181942A1, “Delta-9-THC compositions and methods for treating symptoms associated with multiple sclerosis” (University of Plymouth, priority 2006, published 2008):
# Experiments:
# [1] = tested on: patients with multiple sclerosis; assay: adverse events reported by patients
# [2] = tested on: patients with multiple sclerosis with problematic spasticity; assay: Ashworth score of spasticity, randomized placebo-controlled study; type: in vivo, human; conditions: baseline to 13 weeks follow-up (visit 7)
# [3] = tested on: patients with multiple sclerosis; assay: patient assessment of treatment benefit at visit 8; type: in vivo, human
# [4] = tested on: patients with multiple sclerosis; assay: category-rating scales, patient reporting of secondary outcomes; type: in vivo, human; conditions: category rating scale
compound,measurement,setting,value
"CCCCCc1cc(O)c2c(c1)OC(C)(C)[C@@H]1CCC(C)=C[C@@H]21 (relative stereo) [delta-9-THC, (6aR-trans)-6a,7,8,10a-tetrahydro-6,6,9-trimethyl-3-pentyl-6H-dibenzo[b,d]pyran-1-ol]",incidences of MS relapse,[1]; by comparison with placebo,greatly reduced
same,Adverse Event: Blocked/insertion of suprapubic catheter,[1]; number reported,0
same,Adverse Event: Constipation,[1]; number reported,0
same,Adverse Event: Grand mal seizure,[1]; number reported,0
same,Adverse Event: MS relapse or possible relapse,[1]; number reported,1
same,Adverse Event: Other,[1]; number reported,11
same,Adverse Event: Pneumonia,[1]; number reported,2
same,Adverse Event: Urinary tract infection,[1]; number reported,3
same,"Mean (SD) change in Ashworth score, upper-body muscle groups (baseline minus follow-up)",[2],0.48 (4.70)
same,"Symptom Improvement, Bladder: No",[3]; number of patients,97
same,"Symptom Improvement, Bladder: Yes",[3]; number of patients,67
same,"Symptom Improvement, Pain: No",[3]; number of patients,64
same,"Symptom Improvement, Pain: Yes",[3]; number of patients,64
same,"Symptom Improvement, Spasticity: No",[3]; number of patients,73
same,"Symptom Improvement, Tremor: No",[3]; number of patients,67
same,"Symptom Improvement, Tremor: Yes",[3]; number of patients,44
same,"Symptom Improvement, Bladder: No",[3]; percent of patients,59%
same,"Symptom Improvement, Bladder: Yes",[3]; percent of patients,40%
same,"Symptom Improvement, Pain: No",[3]; percent of patients,50%
same,"Symptom Improvement, Pain: Yes",[3]; percent of patients,50%
same,"Symptom Improvement, Spasticity: No",[3]; percent of patients,40%
same,"Symptom Improvement, Spasticity: Yes",[3]; percent of patients,60%
same,"Symptom Improvement, Tremor: No",[3]; percent of patients,60%
same,"Symptom Improvement, Tremor: Yes",[3]; percent of patients,40%
same,Depression: Deterioration,[4]; number of patients,42
same,Depression: Improvement,[4]; number of patients,36
same,Depression: Same,[4]; number of patients,47
same,Energy: Deterioration,[4]; number of patients,49
same,Energy: Improvement,[4]; number of patients,61
same,Energy: Same,[4]; number of patients,63
same,Irritability: Deterioration,[4]; number of patients,32
same,Irritability: Improvement,[4]; number of patients,37
same,Irritability: Same,[4]; number of patients,42
same,Pain: Deterioration,[4]; number of patients,22
same,Pain: Improvement,[4]; number of patients,64
same,Pain: Same,[4]; number of patients,43
same,Shake/tremor: Deterioration,[4]; number of patients,32
same,Shake/tremor: Improvement,[4]; number of patients,52
same,Shake/tremor: Same,[4]; number of patients,44
same,Sleep: Deterioration,[4]; number of patients,24
same,Sleep: Improvement,[4]; number of patients,71
same,Sleep: Same,[4]; number of patients,57
same,Spasms: Deterioration,[4]; number of patients,27
same,Spasms: Improvement,[4]; number of patients,81
same,Spasms: Same,[4]; number of patients,49
same,Spasticity: Deterioration,[4]; number of patients,47
same,Spasticity: Improvement,[4]; number of patients,89
same,Spasticity: Same,[4]; number of patients,40
same,Tiredness: Deterioration,[4]; number of patients,76
same,Tiredness: Improvement,[4]; number of patients,35
same,Tiredness: Same,[4]; number of patients,46
same,Depression: Deterioration,[4]; percent of patients,(34%)
same,Depression: Improvement,[4]; percent of patients,(29%)
same,Depression: Same,[4]; percent of patients,(38%)
same,Energy: Deterioration,[4]; percent of patients,(28%)
same,Energy: Improvement,[4]; percent of patients,(35%)
same,Energy: Same,[4]; percent of patients,(36%)
same,Irritability: Deterioration,[4]; percent of patients,(29%)
same,Irritability: Improvement,[4]; percent of patients,(33%)
same,Irritability: Same,[4]; percent of patients,(38%)
same,Pain: Deterioration,[4]; percent of patients,(17%)
same,Pain: Improvement,[4]; percent of patients,(50%)
same,Pain: Same,[4]; percent of patients,(33%)
same,Shake/tremor: Deterioration,[4]; percent of patients,(25%)
same,Shake/tremor: Improvement,[4]; percent of patients,(41%)
same,Shake/tremor: Same,[4]; percent of patients,(34%)
same,Sleep: Deterioration,[4]; percent of patients,(16%)
same,Sleep: Improvement,[4]; percent of patients,(47%)
same,Sleep: Same,[4]; percent of patients,(38%)
same,Spasms: Deterioration,[4]; percent of patients,(22%)
same,Spasms: Improvement,[4]; percent of patients,(49%)
same,Spasms: Same,[4]; percent of patients,(29%)
same,Spasticity: Deterioration,[4]; percent of patients,(27%)
same,Spasticity: Improvement,[4]; percent of patients,(51%)
same,Spasticity: Same,[4]; percent of patients,(23%)
same,Tiredness: Deterioration,[4]; percent of patients,(48%)
same,Tiredness: Improvement,[4]; percent of patients,(22%)
same,Tiredness: Same,[4]; percent of patients,(29%)
